# Test results published in patent US10532986B2, “Cyclic compound acting as PDE4 inhibitor” (MEDSHINE DISCOVERY INC., priority 2016, dated 2020).
# pIC50: −log10 of the molar value.
# Molecular target: T1, Recombinant human PDE4B (Homo sapiens, UniProt Q07343)
# T1 construct: amino acid 305-end; GST (N); made in house; host or cells: Sf9 insect cells (baculovirus)
# Experiment: Inhibitory activity of the compounds against PDE 4B (fluorescence polarization, Transcreener AMP2/GMP2)
# Type: biochemical
# Details: recombinant human PDE4B (aa 305-end, GST tag); 1 μM cAMP; 1 hour at room temperature
# Procedure: Inhibitory activity of the compounds against PDE 4B
# The assay is based on the fluorescence polarization measuring AMP/GMP production as a result of the enzyme activity by displacement of Tracer binding to the AMP/GMP antibody.
# 10 mM Tris-HCl (pH 7.5), 5 mM MgCl2, 0.01% Brij 35, 1 mM DTT and 1% DMSO.
# Recombinant human PDE4B (Gene accession number: NM_002600; amino acid 305-end) was expressed by baculovirus in Sf9 insect cells using an N-terminal GST tag. MW=78 kDa.
# Transcreener® AMP^2/GMP^2 antibody and AMP^2/GMP^2 AlexaFluor 633 tracer
# i) Recombinant human PDE4B and the enzyme substrate (1 μM cAMP) were dissolved in the newly-prepared buffer solution, respectively.
# ii) The PDE4B buffer solution defined as above was transferred into the reaction wells.
# iii) The compound which was dissolved in 100% DMSO was added to the reaction wells of the PDE4B buffer solution by Acoustic technology (Echo550; nanoliter range) and incubated at room temperature for 10 minutes.
# iv) The enzymatic buffer solution was then added to the reaction wells defined as above to initiate the reaction.
# v) The reaction was incubated at room temperature for 1 hour.
# vi) The reaction was terminated by adding detecting mixture (Transcreener® AMP^2/GMP^2 antibody and AMP^2/GMP^2 AlexaFluor 633 tracer) and incubated for 90 minutes with gentle mixing. The measurement range of fluorescence polarization is Ex/Em=620/688.
# The fluorescence polarization signal was converted into nM based on the AMP/GMP standard curve and the percent enzyme activity relative to DMSO calculated by Excel. GraphPad Prism was used to plot the curves (Drawing Medicine Icon)
# T1 sequence (Q07343 305-736 limits assumed): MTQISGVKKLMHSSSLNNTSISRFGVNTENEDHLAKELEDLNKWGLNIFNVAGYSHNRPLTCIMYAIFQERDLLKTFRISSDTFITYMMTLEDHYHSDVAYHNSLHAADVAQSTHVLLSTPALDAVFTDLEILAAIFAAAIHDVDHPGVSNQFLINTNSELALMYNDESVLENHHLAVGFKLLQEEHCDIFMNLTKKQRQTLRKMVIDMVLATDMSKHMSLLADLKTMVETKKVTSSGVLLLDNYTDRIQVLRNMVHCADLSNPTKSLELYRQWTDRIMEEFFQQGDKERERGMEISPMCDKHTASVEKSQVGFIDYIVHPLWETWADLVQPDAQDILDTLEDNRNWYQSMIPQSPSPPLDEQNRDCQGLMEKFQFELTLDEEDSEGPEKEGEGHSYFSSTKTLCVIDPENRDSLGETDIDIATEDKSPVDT
row,pIC50,SMILES
1,8.43,CCOc1cc([C@@H](CS(C)(=O)=O)n2c(=O)[nH]c3cc(Br)cc(F)c32)ccc1OC [WX001]
2,8.20,CCOc1cc([C@@H](CS(C)(=O)=O)n2c(=O)[nH]c3cc(C(F)(F)F)ccc32)ccc1OC [WX002]
3,8.65,CCOc1cc([C@@H](CS(C)(=O)=O)n2c(=O)[nH]c3cc(Cl)ccc32)ccc1OC [WX003]
4,7.94,CCOc1cc([C@@H](CS(C)(=O)=O)n2c(=O)[nH]c3cc(F)ccc32)ccc1OC [WX004]
5,7.03,CCOc1cc([C@@H](CS(C)(=O)=O)n2c(=O)[nH]c3cc(F)cc(F)c32)ccc1OC [WX005]
6,7.59,CCOc1cc([C@@H](CS(C)(=O)=O)n2c(=O)[nH]c3cc(C(F)(F)F)cc(F)c32)ccc1OC [WX006]
7,8.04,CCOc1cc([C@@H](CS(C)(=O)=O)n2c(=O)[nH]c3c(Br)cccc32)ccc1OC [WX007]
8,7.65,CCOc1cc([C@@H](CS(C)(=O)=O)n2c(=O)[nH]c3c(Cl)cccc32)ccc1OC [WX008]
9,8.20,CCOc1cc([C@@H](CS(C)(=O)=O)n2c(=O)[nH]c3cc(Br)ccc32)ccc1OC [WX009]
10,7.71,CCOc1cc([C@@H](CS(C)(=O)=O)n2c(=O)[nH]c3ccccc32)ccc1OC [WX010]
11,9.28,CCOc1cc([C@@H](CS(C)(=O)=O)n2c(=O)[nH]c3cc(-c4ccccc4F)ccc32)ccc1OC [WX011]
12,8.66,CCOc1cc([C@@H](CS(C)(=O)=O)n2c(=O)[nH]c3cc(-c4cccc(F)c4)ccc32)ccc1OC [WX012]
13,8.21,CCOc1cc([C@@H](CS(C)(=O)=O)n2c(=O)[nH]c3cc(-c4ccc(F)cc4)ccc32)ccc1OC [WX013]
14,9.22,CCOc1cc([C@@H](CS(C)(=O)=O)n2c(=O)[nH]c3cc(-c4ccccc4C)ccc32)ccc1OC [WX014]
15,9.17,CCOc1cc([C@@H](CS(C)(=O)=O)n2c(=O)[nH]c3cc(-c4ccccc4Cl)ccc32)ccc1OC [WX015]
16,> 9.30,CCOc1cc([C@@H](CS(C)(=O)=O)n2c(=O)[nH]c3cc(-c4ccccc4OC)ccc32)ccc1OC [WX016]
17,> 9.30,CCOc1cc([C@@H](CS(C)(=O)=O)n2c(=O)[nH]c3cc(-c4ccccc4C(F)(F)F)ccc32)ccc1OC [WX017]
18,> 9.30,CCOc1cc([C@@H](CS(C)(=O)=O)n2c(=O)[nH]c3cc(-c4ccccc4C(C)C)ccc32)ccc1OC [WX018]
19,> 9.30,CCOc1cc([C@@H](CS(C)(=O)=O)n2c(=O)[nH]c3cc(-c4ccccc4CC)ccc32)ccc1OC [WX019]
20,7.90,CCOc1cc([C@@H](CS(C)(=O)=O)n2c(=O)n(C3CC3)c3cc(Cl)ccc32)ccc1OC [WX020]
21,7.19,CCOc1cc([C@@H](CS(C)(=O)=O)n2c(=O)n(C3CC3)c3cc(F)ccc32)ccc1OC [WX021]
22,7.40,CCOc1cc([C@@H](CS(C)(=O)=O)n2c(=O)n(C3CC3)c3cc(C(F)(F)F)ccc32)ccc1OC [WX022]
23,8.72,CCOc1cc([C@@H](CS(C)(=O)=O)n2c(=O)n(C3CC3)c3cc(-c4ccccc4F)ccc32)ccc1OC [WX023]

row,pIC50,SMILES
1,> 9.30,CCOc1cc([C@@H](CS(C)(=O)=O)n2c(=O)[nH]c3cc(-c4ccccc4OCC)ccc32)ccc1OC [WX024]
2,8.85,CCOc1cc([C@@H](CS(C)(=O)=O)n2c(=O)[nH]c3cc(-c4ncccc4F)ccc32)ccc1OC [WX025]
3,8.07,CCOc1cc([C@@H](CS(C)(=O)=O)n2c(=O)[nH]c3cc(-c4nccnc4C)ccc32)ccc1OC [WX026]
4,7.75,CCOc1cc([C@@H](CS(C)(=O)=O)n2c(=O)[nH]c3cc(-c4nnccc4C)ccc32)ccc1OC [WX027]
5,> 9.30,CCOc1cc([C@@H](CS(C)(=O)=O)n2c(=O)[nH]c3cc(-c4ccccc4C#N)ccc32)ccc1OC [WX028]
6,> 9.30,CCOc1cc([C@@H](CS(C)(=O)=O)n2c(=O)[nH]c3cc(-c4nccnc4N(C)C)ccc32)ccc1OC [WX029]
7,8.88,CCOc1cc([C@@H](CS(C)(=O)=O)n2c(=O)[nH]c3cc(-c4nccnc4C4CC4)ccc32)ccc1OC [WX030]
8,8.48,CCOC(=O)c1ccc2c(c1)[nH]c(=O)n2[C@H](CS(C)(=O)=O)c1ccc(OC)c(OCC)c1 [WX031]
9,8.69,CCOc1cc([C@@H](CS(C)(=O)=O)n2c(=O)[nH]c3cc(C(=O)OC(C)C)ccc32)ccc1OC [WX032]
10,8.96,CCOc1cc([C@@H](CS(C)(=O)=O)n2c(=O)[nH]c3cc(C(=O)OCC(F)(F)F)ccc32)ccc1OC [WX033]
11,7.65,CCOc1cc([C@@H](CS(C)(=O)=O)n2c(=O)[nH]c3cc(C(=O)O)ccc32)ccc1OC [WX034]
12,8.08,CCOc1cc([C@@H](CS(C)(=O)=O)n2c(=O)[nH]c3cc(C(=O)CC)ccc32)ccc1OC [WX035]
13,8.04,CCOc1cc([C@@H](CS(C)(=O)=O)n2c(=O)n(CC(F)F)c3cc(Cl)ccc32)ccc1OC [WX036]
14,7.97,CCOc1cc([C@@H](CS(C)(=O)=O)n2c(=O)n(CC(F)(F)F)c3cc(Cl)ccc32)ccc1OC [WX037]
15,8.10,CCOc1cc([C@@H](CS(C)(=O)=O)n2c(=O)n(C)c3cc(Cl)ccc32)ccc1OC [WX038]
16,8.00,CCOc1cc([C@@H](CS(C)(=O)=O)n2c(=O)n(CC)c3cc(Cl)ccc32)ccc1OC [WX039]
17,8.12,CCOc1cc([C@@H](CS(C)(=O)=O)n2c(=O)n(CC3CC3)c3cc(Cl)ccc32)ccc1OC [WX040]
18,7.92,CCOc1cc([C@@H](CS(C)(=O)=O)n2c(=O)n(CC3CCC3)c3cc(Cl)ccc32)ccc1OC [WX041]
19,8.17,CCOc1cc([C@@H](CS(C)(=O)=O)n2c(=O)n(CCOC)c3cc(Cl)ccc32)ccc1OC [WX042]
20,8.35,CCOc1cc([C@@H](CS(C)(=O)=O)n2c(=O)n(CCO)c3cc(Cl)ccc32)ccc1OC [WX043]
21,8.29,CCOc1cc([C@@H](CS(C)(=O)=O)n2c(=O)n(C(C)C)c3cc(Cl)ccc32)ccc1OC [WX044]
22,8.45,CCOc1cc([C@@H](CS(C)(=O)=O)n2c(=O)n(CC#N)c3cc(Cl)ccc32)ccc1OC [WX045]
23,8.00,CCOc1cc([C@@H](CS(C)(=O)=O)n2c(=O)n(CC(F)F)c3cc(F)ccc32)ccc1OC [WX046]

row,pIC50,SMILES
1,7.35,CCOc1cc([C@@H](CS(C)(=O)=O)n2c(=O)n(CC(F)(F)F)c3cc(F)ccc32)ccc1OC [WX047]
2,7.24,CCOc1cc([C@@H](CS(C)(=O)=O)n2c(=O)n(C)c3cc(F)ccc32)ccc1OC [WX048]
3,7.94,CCOc1cc([C@@H](CS(C)(=O)=O)n2c(=O)n(CC#N)c3cc(F)ccc32)ccc1OC [WX049]
4,7.51,CCOc1cc([C@@H](CS(C)(=O)=O)n2c(=O)n(CCO)c3cc(F)ccc32)ccc1OC [WX050]
5,7.57,CCOc1cc([C@@H](CS(C)(=O)=O)n2c(=O)n(CC(F)F)c3cc(C(F)(F)F)ccc32)ccc1OC [WX051]
6,7.86,CCOc1cc([C@@H](CS(C)(=O)=O)n2c(=O)n(CC(F)(F)F)c3cc(C(F)(F)F)ccc32)ccc1OC [WX052]
7,7.58,CCOc1cc([C@@H](CS(C)(=O)=O)n2c(=O)n(C)c3cc(C(F)(F)F)ccc32)ccc1OC [WX053]
8,7.88,CCOc1cc([C@@H](CS(C)(=O)=O)n2c(=O)n(CC)c3cc(C(F)(F)F)ccc32)ccc1OC [WX054]
9,7.67,CCOc1cc([C@@H](CS(C)(=O)=O)n2c(=O)n(CC#N)c3cc(C(F)(F)F)ccc32)ccc1OC [WX055]
10,8.37,CCOc1cc([C@@H](CS(C)(=O)=O)n2c(=O)n(CCO)c3cc(C(F)(F)F)ccc32)ccc1OC [WX056]
11,7.00,CCOc1cc([C@@H](CS(C)(=O)=O)n2c(=O)n(C)c3cc(F)cc(F)c32)ccc1OC [WX057]
12,8.07,CCOc1cc([C@@H](CS(C)(=O)=O)n2c(=O)n(CC#N)c3cc(F)cc(F)c32)ccc1OC [WX058]
13,7.17,CCOc1cc([C@@H](CS(C)(=O)=O)n2c(=O)n(CCO)c3cc(F)cc(F)c32)ccc1OC [WX059]
14,7.46,CCOc1cc([C@@H](CS(C)(=O)=O)n2c(=O)n(Cc3ccccc3F)c3cc(C(F)(F)F)cc(F)c32)ccc1OC [WX060]
15,7.41,CCOc1cc([C@@H](CS(C)(=O)=O)n2c(=O)n(CC(F)F)c3c(Cl)cccc32)ccc1OC [WX061]
16,7.26,CCOc1cc([C@@H](CS(C)(=O)=O)n2c(=O)n(CC(F)(F)F)c3c(Cl)cccc32)ccc1OC [WX062]
17,7.68,CCOc1cc(C(CS(C)(=O)=O)n2c(=O)n(CCS(C)(=O)=O)c3cc(Br)ccc32)ccc1OC (stereo not shown) [WX063]
18,9.04,CCOc1cc([C@@H](CS(C)(=O)=O)n2c(=O)n(Cc3ccccc3F)c3cc(Br)ccc32)ccc1OC [WX064]
19,8.84,CCOc1cc([C@@H](CS(C)(=O)=O)n2c(=O)n(Cc3cccc(F)c3)c3cc(Br)ccc32)ccc1OC [WX065]
20,8.81,CCOc1cc([C@@H](CS(C)(=O)=O)n2c(=O)n(Cc3ccc(F)cc3)c3cc(Br)ccc32)ccc1OC [WX066]
21,8.00,CCOc1cc([C@@H](CS(C)(=O)=O)n2c(=O)n(Cc3ccccc3F)c3ccccc32)ccc1OC [WX067]
